Patent US11773063B1, “Pharmaceutically acceptable salts and compositions thereof” (priority 2022, dated 2023)
Where a name gives a salt, the structure may show the parent alone.

Tests used:
[1] = Thermo-Gravimetric Analysis (TGA), thermal stability; conditions: for thermal stability up to (TGA) / start of decomposition / complete mass loss (TGA): 10° C./min; for thermal stability up to (TGA): nitrogen
Method: Thermo—Gravimetric Analysis (TGA)
TGA thermograms were obtained with a TA Instrument Discovery 550 in Al pans. The heating rate used was 10° C./min linear ramp from 25 to 400° C. with a nitrogen purging at a rate of 60 ml/min. TGA thermograms were analysed using TRIOS software.

[2] = Dynamic Vapor Sorption (DVS), salt screen and scale-up salts; format: physicochemical; conditions: for deliquescence during DVS: high RH
Method: Dynamic Vapor Sorption (DVS)
DVS analyses were performed on TA Instrument DVS Q5000. Samples were added to a pre-tared metallised quartz crucible and run at 25° C. from 40% RH to 90% RH, down to zero and back to 40%. This cycle was repeated in increments of 10% RH.

[3] = DVS double-cycle experiment (Example 3); format: physicochemical
[4] = Storage at 40° C./75% RH and 25° C./97% RH for 7 days, XRPD and HPLC (Example 3); format: physicochemical
Method: FIG. 128. XRPD diffractogram overlay of 5-MeO-DMT Phosphate Pattern 1 before and after storage at 25° C./97% RH and 40° C./75% RH for 7 days.
FIG. 139. XRPD diffractogram overlay of 5-MeO-DMT Tartrate Pattern 1 before and after storage at 25° C./97% RH and 40° C./75% RH for 7 days.
The sample is classed as slightly hygroscopic with a total reversible mass change of 0.3 wt. % between 0-90% RH. The DVS isotherm and DVS kinetic plot can be seen in FIGS. 124 and 125, respectively. The solid form was unchanged after a double-cycle experiment, the XRPD analysis confirming this can be seen in FIG. 126.
The sample is classed as slightly hygroscopic with a total reversible mass change of 0.6 wt. % between 0-90% RH (FIG. 135). The solid-form was unchanged after the double-cycle experiment (FIG. 136).

[5] = Polymorphism screen of hydrochloride and benzoate salts: thermal cycling, evaporation, antisolvent addition, cooling (XRPD); format: physicochemical; conditions: for 3-day Observations: thermally cycled between ambient and 40° C., -17 Forma; for 3-day Observations / Initial Observations: -04 2-Ethoxyethanol; for Initial Observations: thermal cycle of lyophilised hydrochloride salt (~40 mg), solvent added, -17 Formamide
Method: Twenty five of the lyophilised samples were treated with solvent and thermally cycled between ambient and 40° C. with four hours spent under each condition. After three days and solids were isolated by centrifuge filtration and analysed by XRPD.
(§1) Twelve samples of the lyophilised material were treated with a minimal volume (ca 0.5 ml) of warm solvent, syringe filtered through a 0.22 µm filter and added to a clean HPLC vial and allowed to evaporate at RT. The solvents used and XRPD results following evaporation are detailed in the Table below:
as §1, with “micrometre” for “µm”
For antisolvent additions thirteen samples of the lyophilised material were dissolved in a small amount of hot solvent (^˜0.5 ml). […] A large excess of antisolvent was then added, the vials sealed. After storage at RT overnight, and samples where no solid had been produced were first cooled to 4° C. for ˜24 hrs, and again if no solid was produced, they were cooled to −18° C. Any solids were isolated by centrifuge filtration and analysed by XRPD.
For the cooling experiments twelve samples of the lyophilised material were dissolved in a small amount of hot solvent (^˜[…]) and syringe filtered through a 0.22 μm filter into a clean HPLC vial. Samples were allowed to cool to RT, and if no solid was produced to 4° C. and then to −18° C. Solids were isolated by centrifuge filtration and analysed by XRPD.

[6] = format: physicochemical; conditions: 40° C./75% RH, three days
Method: Physical Stability of Salts
Physical stability stress tests were conducted on generated crystalline salts at controlled temperature and relative humidity. The powder samples were stored at 40° C./75% RH for three days. After this time samples were analysed by XRPD to see whether the physical state of salts changed during the storage.

[7] = Solubility assessment in four different media; format: physicochemical; conditions: four media: SNF, pH 1.2, pH 4.5 and pH 6.8 media, 37 °C, aqueous buffer, thermodynamic from solid; four different media
Method: Solubility assessments of 5-MeO-DMT oxalate, hydrobromide fumarate and benzoate were performed in four different media: […]

[8] = first sorption isotherm, 25° C.

## COc1ccc2[nH]cc(CCN(C)C)c2c1 [Benzenesulfonate salt, 5-MeO-DMT benzenesulfonate]
[1]
  thermal stability up to (TGA): 250 °C
[2]; [8]
  moisture absorption at 70% RH: 7 % w/w
  moisture absorption at 80% RH: 14 % w/w
  water uptake up to 60% RH: 1.2 % w/w
[2]; 25° C.
  deliquescence during DVS: begins to deliquesce

## COc1ccc2[nH]cc(CCN(C)C)c2c1.O=P(O)(O)O [DR-2186-48-01]
[3]
  GVS hygroscopicity class (European Pharmacopeia definitions): slightly hygroscopic (based on European Pharmacopeia (Pharmaceuticals that pick up between 0.2% and 2.0% moisture at 80% RH are considered slightly hygroscopic)
[3]; from 0-90% RH
  GVS total mass change as mol eq. water: 0.06 mol eq. water
[3]; from 0-90% RH, double cycle
  GVS total mass change: 0.34 wt. %
[4]; 25° C./97% RH
  Static Storage 7 days - 25° C./97% RH, XRPD: XRPD - PHO Pattern 1
[4]; 25° C./97% RH, HPLC purity
  Static Storage 7 days - 25° C./97% RH, HPLC: HPLC - 98.0%
[4]; 40° C./75% RH
  Static Storage 7 days - 40° C./75% RH, XRPD: XRPD - PHO Pattern 1
[4]; 40° C./75% RH, HPLC purity
  Static Storage 7 days - 40° C./75% RH, HPLC: HPLC - 98.1%
[1]
  TGA decomposition onset: 130-170 °C Decomposition onset from 180 °C
[1]; 130-170° C.
  TGA further mass lost during the melt: further 0.95% (0.1 mol eq. MeOH) was lost during the melt,
[1]; from 40-125° C.
  TGA mass loss: 0.4 wt. % (0.04 mol. eq. MeOH) mass loss from 40-125 °C A

## COc1ccc2[nH]cc(CCN(C)C)c2c1.Cl [Hydrochloride pattern 2, 5-MeO-DMT hydrochloride]
[1]; hydrochloride
  start of decomposition / complete mass loss (TGA): around 256 °C
[5]; hydrochloride salt, solid isolated after thermal cycle between ambient and 40° C., three days, solvent per experiment: -01 1,4-Dioxane, -02 1-Propanol, -03 2-Butanol, -05 2-Methyltetrahydrofuran, -06 2-Propanol, -07 Acetone, -08 Acetonitrile, -09 Anisole, -10 Chlorobenzene, -11 Ethanol, -12 Ethyl acetate, -13 Isopropyl acetate, -14 Methanol, -15 Propyl acetate, -16 Methylethyl ketone, -20 iso-Prop, listed as DJP2202-007-01, hydrochloride
  XRPD Result: Pattern 2
[5]; hydrochloride salt, three days, solvent per experiment: -01 1,4-Dioxane, -02 1-Propanol, -03 2-Butanol, -05 2-Methyltetrahydrofuran, -06 2-Propanol, -07 Acetone, -08 Acetonitrile, -09 Anisole, -10 Chlorobenzene, -11 Ethanol, -12 Ethyl acetate, -13 Isopropyl acetate, -14 Methanol, -15 Propyl acetate, -16 Methylethyl ketone, listed as DJP2202-007-01, hydrochloride
  3-day Observations: solid mass
[5]; solvent per experiment: -01 1,4-Dioxane, -02 1-Propanol, -03 2-Butanol, -05 2-Methyltetrahydrofuran, -06 2-Propanol, -07 Acetone, -08 Acetonitrile, -09 Anisole, -10 Chlorobenzene, -11 Ethanol, -12 Ethyl acetate, -13 Isopropyl acetate, -14 Methanol, -15 Propyl acetate, -16 Methylethyl ketone, listed as DJP2202-007-01, hydrochloride
  Initial Observations: no change

## COc1ccc2[nH]cc(CCN(C)C)c2c1.Cl [Hydrochloride pattern 3, 5-MeO-DMT hydrochloride]
[1]; hydrochloride
  start of decomposition / complete mass loss (TGA): around 260 °C
[5]; hydrochloride salt, solid isolated after thermal cycle between ambient and 40° C., three days, solvent per experiment: -01 1,4-Dioxane, -02 1-Propanol, -03 2-Butanol, -05 2-Methyltetrahydrofuran, -06 2-Propanol, -07 Acetone, -08 Acetonitrile, -09 Anisole, -10 Chlorobenzene, -11 Ethanol, -12 Ethyl acetate, -13 Isopropyl acetate, -14 Methanol, -15 Propyl acetate, -16 Methylethyl ketone, -20 iso-Prop, listed as DJP2202-007-14, hydrochloride
  XRPD Result: Pattern 3
[5]; hydrochloride salt, three days, solvent per experiment: -01 1,4-Dioxane, -02 1-Propanol, -03 2-Butanol, -05 2-Methyltetrahydrofuran, -06 2-Propanol, -07 Acetone, -08 Acetonitrile, -09 Anisole, -10 Chlorobenzene, -11 Ethanol, -12 Ethyl acetate, -13 Isopropyl acetate, -14 Methanol, -15 Propyl acetate, -16 Methylethyl ketone, listed as DJP2202-007-14, hydrochloride
  3-day Observations: clear solution
[5]; solvent per experiment: -01 1,4-Dioxane, -02 1-Propanol, -03 2-Butanol, -05 2-Methyltetrahydrofuran, -06 2-Propanol, -07 Acetone, -08 Acetonitrile, -09 Anisole, -10 Chlorobenzene, -11 Ethanol, -12 Ethyl acetate, -13 Isopropyl acetate, -14 Methanol, -15 Propyl acetate, -16 Methylethyl ketone, listed as DJP2202-007-14, hydrochloride
  Initial Observations: dissolved

## COc1ccc2[nH]cc(CCN(C)C)c2c1 [Ketoglutarate salt, 5-MeO-DMT ketoglutarate]
[2]; [8]
  water uptake at 40% RH: 0.13 % w/w
[2]; 25° C.
  deliquescence during DVS: deliquesce at high RH

## COc1ccc2[nH]cc(CCN(C)C)c2c1 [Phosphate Pattern 1, 5-MeO-DMT phosphate]
[3]; DVS
  total reversible mass change between 0-90% RH: 0.3 wt. %

## COc1ccc2[nH]cc(CCN(C)C)c2c1 [Phosphate salt, 5-MeO-DMT phosphate]
[6]
  crystalline form after storage (XRPD): did not undergo any transformation
[2]
  change of crystalline form during the DVS experiment (DVS / post-DVS XRPD): no evidence of form change

## COc1ccc2[nH]cc(CCN(C)C)c2c1 [Saccharinate salt, 5-MeO-DMT saccharinate]
[1]
  thermal stability up to (TGA): 200 °C

## COc1ccc2[nH]cc(CCN(C)C)c2c1.O=C(O)c1ccccc1 [benzoate salt pattern 2, 5-MeO-DMT benzoate]
[1]
  thermal stability up to (TGA): ~170 °C

## COc1ccc2[nH]cc(CCN(C)C)c2c1.O=C(O)c1ccccc1 [benzoate salt pattern 3, 5-MeO-DMT benzoate]
[1]
  start of decomposition / complete mass loss (TGA): approximately 190 °C

## COc1ccc2[nH]cc(CCN(C)C)c2c1.O=C(O)c1ccccc1 [benzoate salt pattern 4, 5-MeO-DMT benzoate]
[1]
  start of decomposition / complete mass loss (TGA): approximately 190 °C
  thermal stability up to (TGA): approximately 190 °C

## COc1ccc2[nH]cc(CCN(C)C)c2c1.O=C(O)c1ccccc1 [benzoate salt, 5-MeO-DMT benzoate]
[7]
  solubility: ≥ 100 mg/mL
[5]; evaporation at RT of lyophilised benzoate salt from 1-PrOH (DJP2202-010-02)
  XRPD Result: Oil
[5]; evaporation at RT of lyophilised benzoate salt from EtOH (DJP2202-010-05)
  XRPD Result: Oil
[5]; evaporation at RT of lyophilised benzoate salt from IPA (DJP2202-010-06)
  XRPD Result: Pattern 4
[5]; evaporation at RT of lyophilised benzoate salt from IPAc (DJP2202-010-10)
  XRPD Result: Pattern 2
[5]; evaporation at RT of lyophilised benzoate salt from MEK (DJP2202-010-11)
  XRPD Result: Pattern 4
[5]; evaporation at RT of lyophilised benzoate salt from MIBK (DJP2202-010-04)
  XRPD Result: Oil
[5]; evaporation at RT of lyophilised benzoate salt from MeCN (DJP2202-010-12)
  XRPD Result: Pattern 4
[5]; evaporation at RT of lyophilised benzoate salt from THF (DJP2202-010-07)
  XRPD Result: Pattern 4
[5]; evaporation at RT of lyophilised benzoate salt from chlorobenzene (DJP2202-010-09)
  XRPD Result: Pattern 4
[5]; evaporation at RT of lyophilised benzoate salt from dioxane (DJP2202-010-08)
  XRPD Result: Pattern 4

## COc1ccc2[nH]cc(CCN(C)C)c2c1 [free base, 5-methoxy-N,N-dimethyltryptamine]
[1]
  thermal stability up to (TGA): 150 °C

## COc1ccc2[nH]cc(CCN(C)C)c2c1 [glycolate salt, 5-MeO-DMT glycolate]
[1]
  thermal stability up to (TGA): around 155 °C
[2]; [8]
  moisture absorption at 70% RH: 11 % w/w
  moisture absorption at 80% RH: 33 % w/w
  water uptake up to 60% RH: 2.3 % w/w
[2]; 25° C.
  deliquescence during DVS: begins to deliquesce

## COc1ccc2[nH]cc(CCN(C)C)c2c1.Cl [hydrochloride salt, 5-MeO-DMT hydrochloride]
[1]
  thermal stability up to (TGA): ~235 °C
[5]; evaporation at RT of lyophilised hydrochloride salt from 1-PrOH (DJP2202-011-02)
  XRPD Results: Pattern 1
[5]; evaporation at RT of lyophilised hydrochloride salt from EtOH (DJP2202-011-05)
  XRPD Results: Pattern 1
[5]; evaporation at RT of lyophilised hydrochloride salt from IPA (DJP2202-011-06)
  XRPD Results: Pattern 1
[5]; evaporation at RT of lyophilised hydrochloride salt from MEK (DJP2202-011-11)
  XRPD Results: Pattern 1
[5]; evaporation at RT of lyophilised hydrochloride salt from MeCN (DJP2202-011-12)
  XRPD Results: Oil
